Data set [1] is described as follows: Mouse lung tissue binding (equilibrium dialysis, RED). Type of data set: in vitro ADME. As to conditions: for Mouse LTB %: mouse lung tissue binding, % bound (Table 3). In short, it runs like this:
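Equilibrium dialysis of mouse lung homogenate against buffer at 37° C. Method (a) used 1 μM compound, pH 7.4 homogenate and 6 h dialysis. Method (b) used 5 μM compound in 1:9 homogenate (0.05 M potassium phosphate pH 7.4) and 4 h dialysis, with fu corrected for dilution. Both were run in triplicate with LC-MS/MS quantification.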

Data set [2] deals with JAK1 pathway: P-STAT6 in TF-1 human erythroleukemia cells + IL-13. Briefly: P-STAT6 TF-1+Interleukin-13 (IL-13) assay. Type of data set: cell-based. As to conditions: Homo sapiens, TF-1, TF-1 cells, IL-13 stimulation; read-out: Cellular JAK1 PSTAT6 TF-1 + IL13 IC50.
Data set [3] concerns the target T1, recombinant human JAK1 kinase domain protein (Residues 854-1154) (Homo sapiens, UniProt P23458).
T1 construct: human JAK1 kinase domain protein (Residues 854-1154); purchased Proteros Biostructures GmbH (Martinsried, Germany); host or cells: insect cells
Briefly: JAK1 biochemical assay (microfluidic mobility shift, peptide phosphorylation). The following applies: 25 μM ATP, 1 nM total JAK1; read-out: Enzyme JAK1 Ki. From the text:
JAK1 and JAK2 Biochemical Assays

Data set [4] relates to JAK2 pathway: P-STAT5 in TF-1 human erythroleukemia cells + EPO. The data set can be described thus: P-STAT5 TF-1+Erythropoietin (EPO) assay. Format: cell-based. As to conditions: Homo sapiens, TF-1, TF-1 cells, EPO stimulation; read-out: Cellular JAK2 PSTAT5 TF-l + EPO IC50.

T1 sequence (P23458 854-1154): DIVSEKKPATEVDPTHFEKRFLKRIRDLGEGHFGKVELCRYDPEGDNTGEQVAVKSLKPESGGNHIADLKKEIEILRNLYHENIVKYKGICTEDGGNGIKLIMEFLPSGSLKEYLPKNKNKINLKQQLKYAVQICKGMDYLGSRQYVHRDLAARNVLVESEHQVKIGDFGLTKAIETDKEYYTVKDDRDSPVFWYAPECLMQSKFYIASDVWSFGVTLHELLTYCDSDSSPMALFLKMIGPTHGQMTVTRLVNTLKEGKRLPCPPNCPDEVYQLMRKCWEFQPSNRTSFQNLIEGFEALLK

`N#CCn1cc(NC(=O)c2cnn3cccnc23)c(-c2cc(S(=O)(=O)C3CC3)ccc2OC(F)F)n1` [Example 45, N-[1-(cyanomethyl)-3-[5-cyclopropylsulfonyl-2-(difluoromethoxy)phenyl]pyrazol-4-yl]pyrazolo[1,5-a]pyrimidine-3-carboxamide]: the “Mouse LTB %” value in data set [1] is given as 87.9%. For the same molecule, the figures for the IC50 in data set [2] and in data set [4] were 10 nM and 38 nM, respectively. For the same molecule, in data set [3], the Ki was 0.71 nM.
The matching figures for `Cn1cc(NC(=O)c2cnn3cccnc23)c(-c2cc(S(=O)(=O)c3cn[nH]c3)ccc2OC(F)F)n1` [Example 41, N-[3-[2-(difluoromethoxy)-5-(1H-pyrazol-4-ylsulfonyl)phenyl]-1-methyl-pyrazol-4-yl]pyrazolo[1,5-a]pyrimidine-3-carboxamide]: 91.2%, 15 nM, 34 nM and 0.18 nM.
The matching figures for `Cn1cc(NC(=O)c2cnn3cccnc23)c(-c2cc3c(cc2OC(F)F)NCCS3(=O)=O)n1` [Example 46, N-[3-[6-(difluoromethoxy)-1,1-dioxo-3,4-dihydro-2H-1lambda6,4-benzothiazin-7-yl]-1-methyl-pyrazol-4-yl]pyrazolo[1,5-a]pyrimidine-3-carboxamide]: 89.9%, 27 nM, 61 nM and 0.26 nM.
The matching figures for `COc1cccc(S(=O)(=O)c2ccc(OC(F)F)c(-c3nn(C)cc3NC(=O)c3cnn4cccnc34)c2)c1` [Example 12, N-[3-[2-(difluoromethoxy)-5-(3-methoxyphenyl)sulfonyl-phenyl]-1-methyl-pyrazol-4-yl]pyrazolo[1,5-a]pyrimidine-3-carboxamide]: 97.1%, 8.7 nM, 9.1 nM and 0.24 nM.
With `CN(C)CCS(=O)(=O)c1ccc(OC(F)F)c(-c2nn(C)cc2NC(=O)c2cnn3cccnc23)c1` [Example 7, N-[3-[2-(difluoromethoxy)-5-[2-(dimethylamino)ethylsulfonyl]phenyl]-1-methyl-pyrazol-4-yl]pyrazolo[1,5-a]pyrimidine-3-carboxamide], the “Mouse LTB %” value in data set [1] was determined as 78.8%. The IC50 in data set [2] was 21 nM; in data set [4], 22 nM. In addition, the Ki in data set [3] is 0.88 nM.
Taken in the same sequence, the figures for `C[C@@H](O)CS(=O)(=O)c1ccc(OC(F)F)c(-c2nn(C)cc2NC(=O)c2cnn3cccnc23)c1` (stereo in doubt) [Example 25, N-[3-[2-(difluoromethoxy)-5-[rac-(2R)-2-hydroxypropyl]sulfonyl-phenyl]-1-methyl-pyrazol-4-yl]pyrazolo[1,5-a]pyrimidine-3-carboxamide] were 85%, 20 nM, 39 nM and 0.48 nM.
Consider `Cn1cc(NC(=O)c2cnn3cccnc23)c(-c2cc(S(=O)(=O)C3COC3)ccc2OC(F)F)n1` [Example 13, N-[3-[2-(difluoromethoxy)-5-(oxetan-3-ylsulfonyl)phenyl]-1-methyl-pyrazol-4-yl]pyrazolo[1,5-a]pyrimidine-3-carboxamide], for which the “Lung tissue binding, %” value in data set [1] (Table 5, sulfone-sulfide analog pairs) is listed as 85.8%. For the same molecule, the “Mouse LTB %” value in data set [1] stood at 85%. Further, the IC50 was found to be 34 nM in data set [2] and 28 nM in data set [4]. Further, in data set [3], the Ki is 0.4 nM.
As for `CN(C)CCn1cc(S(=O)(=O)c2ccc(OC(F)F)c(-c3nn(C)cc3NC(=O)c3cnn4cccnc34)c2)cn1` [Example 49, N-[3-[2-(difluoromethoxy)-5-[1-[2-(dimethylamino)ethyl]pyrazol-4-yl]sulfonyl-phenyl]-1-methyl-pyrazol-4-yl]pyrazolo[1,5-a]pyrimidine-3-carboxamide], the “Mouse LTB %” value in data set [1] is 84.4%. In addition, the IC50 came out at 20 nM in data set [2] and 34 nM in data set [4]. Also, the Ki in data set [3] amounted to 0.5 nM.

Source of the values: patent US11453671B2, “Pyrazolopyrimidine inhibitors of JAK kinases and uses thereof” (Genentech, Inc., priority 2020, dated 2022).
